Measurements from patent publication US20050090457A1, “Method of treating mammals with genistein and/or genistein analogues” (N.V. NUTRICIA, priority 2002, published 2005).
Read-outs that look alike come from different tables or passages of the source. Blank lines part the entries; values can stand above or below the compound they belong to.

How the values were obtained:
PPARγ [1] = target: T1, PPARγ (Homo sapiens, UniProt P37231); test: Membrane-bound PPARγ binding assay
T1 sequence (P37231 1-505): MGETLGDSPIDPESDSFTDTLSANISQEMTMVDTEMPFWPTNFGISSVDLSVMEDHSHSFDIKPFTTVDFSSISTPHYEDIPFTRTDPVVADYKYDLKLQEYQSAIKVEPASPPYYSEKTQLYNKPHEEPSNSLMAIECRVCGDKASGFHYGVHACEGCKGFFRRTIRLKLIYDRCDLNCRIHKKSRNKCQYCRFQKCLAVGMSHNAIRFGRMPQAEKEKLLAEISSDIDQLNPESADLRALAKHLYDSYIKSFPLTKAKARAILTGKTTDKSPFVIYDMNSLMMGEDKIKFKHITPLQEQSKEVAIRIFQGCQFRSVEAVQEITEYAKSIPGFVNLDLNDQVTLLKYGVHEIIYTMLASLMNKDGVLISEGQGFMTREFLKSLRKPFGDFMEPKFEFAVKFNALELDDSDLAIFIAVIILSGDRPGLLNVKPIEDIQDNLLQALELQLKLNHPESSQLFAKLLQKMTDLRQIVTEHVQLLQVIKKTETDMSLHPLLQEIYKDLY
From the text: The dose-related increase of PPRE reporter activity by genistein was also observed when a luciferase reporter construct containing three copies of a consensus PPRE inserted in front of a minimal thymidine kinase promoter. To determine whether genistein activates PPARγ through direct interaction with this receptor, we performed membrane-bound PPARγ binding assay.

PPARγ [2] = target: T2, PPARγ (Mus musculus, UniProt P37238); settings: cited from earlier work; for PPARγ binding and activation: may act as allosteric effectors
T2 construct: host or cells: mouse macrophages
T2 sequence (P37238 1-505): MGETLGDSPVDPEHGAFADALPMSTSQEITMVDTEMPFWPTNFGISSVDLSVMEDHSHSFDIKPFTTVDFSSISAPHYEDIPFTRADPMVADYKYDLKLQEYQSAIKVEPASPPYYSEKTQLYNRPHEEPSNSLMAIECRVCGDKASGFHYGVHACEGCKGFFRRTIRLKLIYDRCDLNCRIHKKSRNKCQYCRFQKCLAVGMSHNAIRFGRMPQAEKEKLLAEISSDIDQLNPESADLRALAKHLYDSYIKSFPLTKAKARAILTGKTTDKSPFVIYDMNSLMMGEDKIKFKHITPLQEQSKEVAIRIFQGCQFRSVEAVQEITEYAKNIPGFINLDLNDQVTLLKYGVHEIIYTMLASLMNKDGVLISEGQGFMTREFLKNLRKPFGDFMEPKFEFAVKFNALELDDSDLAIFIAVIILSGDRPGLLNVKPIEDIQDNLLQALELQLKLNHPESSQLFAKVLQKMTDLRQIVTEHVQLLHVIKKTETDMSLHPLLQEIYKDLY

[3] = system: estrogen receptors (ER's); test: In vitro model, summary: activation of estrogen receptors; type: cell-based; settings: leads to stimulation of osteogenesis
3T3-L1 = settings: cited from earlier work; for proliferation of preadipocytes: time- and dose-dependent
3T3-L1 cels = settings: cited from earlier work
KS 483 cells = test: Osteogenesis in KS 483 cells (ALP activity, nodule formation, Ca deposition, osteoblastic marker mRNA); type: cell-based
Procedure: KS 483 cells were continuously treated for 21 days with various concentrations of genistein from day one onwards. Genistein had clear biphasic effects on osteogenesis. The stimulatory effects of genistein on alkaline phosphatase (ALP) activity, nodule formation and Ca deposition were found in the range of 0.1 μM to 10 μM, with a maximal effect at 1 μM. In contrast, the inhibitory effects of genistein on ALP activity, nodule formation and Ca deposition occurred at concentrations of 25 μM or higher.

KS483 cells = test: Adipogenesis (adipocyte numbers) in KS483 cells; type: cell-based; settings: KS483 cells treated from day 1 onwards
From the text: (§1) These inhibitory and stimulatory effects of genistein on adipogenesis in KS483 cells were further confirmed by mRNA expression of the adipocyte markers, PPARγ2, adipocyte protein 2 (aP2) and lipoprotein lipase (LPL). Adipogenic responses of mouse bone marrow cells to different doses of genistein were obtained.

p42 and p44 MAPK = test: Western blot of p42 and p44 MAPK activity; type: cell-based
From the text: It has been shown that phosphorylation of PPARγ by p42 and p44 mitogen activated protein kinase (MAPK) regulates PPARγ activity. We therefore performed western blot to test whether genistein at the micromolar concentrations inhibit p42 and p44 MAPK activity. […] An inhibition of p42 and p44 vMAPK activity is likely to potentiate PPARγ activity.

mouse bone marrow cells = test: Adipogenesis (adipocyte numbers) in mouse bone marrow cultures; type: cell-based
From the text: as §1

PPARγ [4] = target: T1, PPARγ; test: In vitro model, summary: activation of and binding to PPARγ; type: cell-based; settings: triggers adipogenesis
From the text: (§2) Despite the large number of prior art publications that deal with the favourable effect of genistein on e.g. osteogenesis and/or adipogenesis, it has not been recognized before that it is crucial to avoid that plasma genistein levels reach a level that is sufficient to activate the PPARγ receptor in order to prevent inhibition of osteoblast activity and differentiation and to prevent stimulation of adipogenesis. As a matter of fact some of these publications recommend genistein dosages and plasma levels that according to the inventors' findings will produce significant adverse results. The inventors have developed a highly reproducible and sensitive in vitro model that has allowed them to discover that the effect of genistein components on e.g. osteogenesis and adipogenesis is biphasic, i.e. at plasma genistein levels above about 0.02 μM estrogen receptors (ER's) may be activated, leading to stimulation of osteogenesis, whilst at plasma genistein levels above about 4 μM the PPARγ receptor is activated, which triggers adipogenesis. By maintaining the plasma genistein levels at a level where the estrogen receptors are continuously activated, whilst at the same time avoiding activation of the PPARγ receptor, disorders such as osteoporosis and obesity may effectively be treated. […] These effects are mediated through the ER's.
At the same time the adipogenesis increases. […]

[5] = system: estrogenic receptor responsive element (ERE); test: ERE luciferase reporter in transiently transfected KS483 cells; type: cell-based
Procedure: KS483 cell were transiently transfected with a luciferase reporter construct containing two copies of a consensus estrogenic receptor responsive element (ERE) inserted in front of TATA or five copies of a consensus PPARy responsive element (PPRE) inserted in front of TATA or empty TATA-luciferase reporter along with expression plasmids encoding human PPARγ2. […] Similarly, a dose-related increase of PPRE reporter activity was found in the range of 1 μM to 50 μM.
It is also possible that an activation of PPARγ down regulated transcriptional activity of estrogen, i.e. there is cross-talk between ER's and PPARγ. […] Ligand concentration thus plays a crucial role in determining the degree of activation of ER's and PPARγ.

[6] = system: human bone marrow cultures; test: Adipogenesis (adipocyte numbers) in human bone marrow cultures; type: cell-based
[7] = system: osteogenesis and adipogenesis; test: In vitro model, summary: osteogenesis stimulated and adipogenesis inhibited; type: cell-based; settings: low plasma concentrations, ER mediated
From the text: as §2

[8] = system: human bone marrow cell cultures; test: Osteogenesis in human bone marrow cell cultures; type: cell-based
Procedure: (§3) Similar stimulatory and inhibitory effects of genistein on bone formation were also observed in mouse and human bone marrow cell cultures. Like in KS483 cells, the stimulatory effects on ALP activity and Ca deposition in mouse bone marrow cultures occurred at concentrations between 0.1 μM and 10 μM, whereas the inhibitory effects were also found at the concentrations of 25 μM or higher. In human bone marrow cell cultures, the stimulatory effects was found at 0.001 μM, whereas the inhibitory effects were observed above 4 μM.

[9] = system: mouse bone marrow cell cultures; test: Osteogenesis in mouse bone marrow cell cultures; type: cell-based
Procedure: as §3

human PPARγ2 = target: T3, human PPARγ2 (Homo sapiens, UniProt P37231); test: PPRE luciferase reporter in KS483 cells with human PPARγ2 expression plasmid; type: cell-based
T3 construct: expressed in transfected cells; host or cells: KS483 cells
T3 sequence (P37231 1-505): T1 sequence (P37231 1-505)
From the text: KS483 cell were transiently transfected with a luciferase reporter construct containing two copies of a consensus estrogenic receptor responsive element (ERE) inserted in front of TATA or five copies of a consensus PPARy responsive element (PPRE) inserted in front of TATA or empty TATA-luciferase reporter along with expression plasmids encoding human PPARγ2.
To determine whether genistein activates PPARγ through direct interaction with this receptor, we performed membrane-bound PPARγ binding assay.

[10] = system: ovariectomised, lactating rats; settings: cited from earlier work
[11] = cited from earlier work
[12] = dose 8 mg/kg body weight; cited from earlier work
[13] = 61.7 μmole genistein per kg bodyweight per day

- Ki (PPARγ [1]): 4.2 µM
Compound: CCCc1c(OCCCCc2nnn[nH]2)ccc(C(C)=O)c1O [LY 171883, reference compound]

Compound: O=c1cc(-c2ccc(O)cc2)oc2cc(O)cc(O)c12 [apigenin]
- PPARγ binding and activation (PPARγ [2]): able to bind and activate PPARγ

Compound: O=c1c(-c2ccc(O)cc2)coc2cc(O)cc(O)c12 [genistein]
- plasma genistein level above which estrogen receptors may be activated [3]: above 0.02 μM
- PPAR-γ expression (3T3-L1; added to 2-day postconfluent preadipocytes at the induction of differentiation): inhibit PPAR-γ expression
- proliferation of preadipocytes (3T3-L1): inhibit proliferation of preadipocytes
- D/M induced adipogenesis (3T3-L1 cels; 3.3 μM, lowest concentration tested): weak inhibitory influence
- D/M induced adipogenesis (3T3-L1 cels; 100 μM): effectively abolishes adipogenic conversion
- D/M induced adipogenesis (3T3-L1 cels; 10 and 33 μM): marked inhibition of adipogenesis
- concentration of maximal stimulatory effect on ALP activity, nodule formation and Ca deposition (KS 483 cells; KS 483 cells, 21 days): 1 µM
- concentrations of inhibitory effects on ALP activity, nodule formation and Ca deposition (KS 483 cells; KS 483 cells, 21 days): ≥ 25 µM
- bone formation by mRNA expression of Cbfal, osteocalcin and PTH/PTHrP receptor (KS 483 cells; genistein 1 μM): increase of bone formation
- bone formation by mRNA expression of Cbfal, osteocalcin and PTH/PTHrP receptor (KS 483 cells; genistein 25 μM): decrease of bone formation
- concentrations of increased adipocyte numbers (KS483 cells): ≥ 10 µM
- concentration range of inhibition of p42 and p44 MAPK activity (p42 and p44 MAPK): micromolar range
- concentrations with an increase in adipocyte numbers (mouse bone marrow cells): above 4 μM
- genistein level above which the PPARγ receptor is bound/activated (PPARγ [4]): above 4 μM
- concentration at which ERE reporter activity reaches the maximal level ([5]; KS483 cells): 50 µM
- effect of co-transfection of PPARγ2 on ERE reporter activity ([5]; KS483 cells exposed to the same concentrations of genistein): decreased ERE reporter activity
- concentration with an increase in adipocyte numbers [6]: 10 µM
- plasma concentrations at which osteogenesis is stimulated and adipogenesis is inhibited [7]: 0.02 to 3 µM
- concentration at which stimulatory effects on bone formation were found [8]: 0.001 µM
- concentrations at which inhibitory effects on bone formation were observed [8]: above 4 μM
- concentrations of inhibitory effects on bone formation [9]: ≥ 25 µM
- Ki (PPARγ [1]): 5.7 µM
- concentration at which PPRE reporter activity reaches the maximal level (human PPARγ2; KS483 cells): 50 µM
- effect of co-transfection of ERα on PPRE reporter activity (human PPARγ2; KS483 cells exposed to genistein): down regulation of PPRE reporter activity
- effect on uterine weight [10, 13]: negative impact on uterine weight
- response on retention of bone mass [10, 13]: lower response
- dosages with positive effect on the retention of bone mass ([10]; ovariectomised, lactating rats): 6.2-19.7 μmole genistein per kg bodyweight per day
- PPARγ activity (PPARγ [2]; concentration of 10 μM): not stimulate PPARγ activity
- plasma concentration of genistein ([11]; Japanese who consume high amounts of soy products): ~5 µM
- plasma concentration of genistein ([11]; humans consuming diets without soy): less than 20 nM
- serum genistein [12]: ~10 µM

Compound: O=c1c(O)c(-c2ccc(O)cc2)oc2cc(O)cc(O)c12 [kaempferol]
- PPARγ binding and activation (PPARγ [2]): able to bind and activate PPARγ

Compound: O=C1C[C@@H](c2ccc(O)cc2)Oc2cc(O)cc(O)c21 [naringenin, reference compound]
- proliferation of preadipocytes (3T3-L1): inhibit proliferation of preadipocytes
